This series relates to rodent lifetime carcinogenesis bioassay, tumor incidence TD50. The experiment in a line: chronic cancer bioassays in animals – CPDB, compiled studies (AID 1745844).
[1] abbreviates: rat, strain Fischer 344, females, in feed, site: any site (literature study), lesion: several types, types named in the paper, dosed 103 weeks, study length 104 weeks.

“And” between values parts separate entries of the source, which are not always exact repeats. Equal values may be shown once. The source made the active and inactive calls. No rule for the calls is given here.

In the case of `C=CC(N)=O`, the TD50 is, setting by setting: (rat, strain Fischer 344, females, in drinking water, site: brain, lesion: astrocytoma, dosed 104 weeks, study length 104 weeks) 38.8 mg/kg/day; (rat, strain Fischer 344, females, in drinking water, site: brain, lesion: astrocytoma, dosed 107 weeks, study length 107 weeks) 71.8 mg/kg/day; (rat, strain Fischer 344, females, in drinking water, site: brain, lesion: oligodendroglioma, dosed 104 weeks, study length 104 weeks) 259 mg/kg/day; (rat, strain Fischer 344, females, in drinking water, site: central nervous system, lesion: astrocytoma, dosed 104 weeks, study length 104 weeks) 19.5 mg/kg/day; (rat, strain Fischer 344, females, in drinking water, site: central nervous system, lesion: glial tumors (oligodendroglioma and astrocytoma), dosed 104 weeks, study length 104 weeks) 17.3 mg/kg/day; (rat, strain Fischer 344, females, in drinking water, site: central nervous system, lesion: glial tumors (oligodendroglioma and astrocytoma), dosed 107 weeks, study length 107 weeks) 57.2 mg/kg/day. Further, the TD50 was 19 mg/kg/day (rat, strain Fischer 344, females, in drinking water, site: clitoral gland, lesion: adenoma, dosed 104 weeks, study length 104 weeks); 17.6 mg/kg/day (rat, strain Fischer 344, females, in drinking water, site: mammary gland, lesion: adenocarcinoma, dosed 104 weeks, study length 104 weeks); 100 mg/kg/day (rat, strain Fischer 344, females, in drinking water, site: mammary gland, lesion: adenocarcinoma, dosed 107 weeks, study length 107 weeks); 4.21 mg/kg/day (rat, strain Fischer 344, females, in drinking water, site: mammary gland, lesion: benign tumor, dosed 104 weeks, study length 104 weeks); 8.73 mg/kg/day (rat, strain Fischer 344, females, in drinking water, site: mammary gland, lesion: fibroadenoma, dosed 104 weeks, study length 104 weeks); 9.33 mg/kg/day (rat, strain Fischer 344, females, in drinking water, site: mammary gland, lesion: fibroadenoma, dosed 107 weeks, study length 107 weeks). Moreover, the TD50 runs as follows: (rat, strain Fischer 344, females, in drinking water, site: mammary gland, lesion: several types, types named in the paper, dosed 107 weeks, study length 107 weeks) 8.18 mg/kg/day; (rat, strain Fischer 344, females, in drinking water, site: mammary tissue, wider than the gland, lesion: fibroma, dosed 104 weeks, study length 104 weeks) 20.9 mg/kg/day; (rat, strain Fischer 344, females, in drinking water, site: oral cavity, lesion: squamous-cell papilloma, dosed 104 weeks, study length 104 weeks) 16.2 mg/kg/day; (rat, strain Fischer 344, females, in drinking water, site: spinal cord, lesion: astrocytoma, dosed 104 weeks, study length 104 weeks) 40.3 mg/kg/day; (rat, strain Fischer 344, females, in drinking water, site: spinal cord, lesion: astrocytoma, dosed 107 weeks, study length 107 weeks) 210 mg/kg/day; (rat, strain Fischer 344, females, in drinking water, site: thyroid follicle, lesion: several types, types named in the paper, dosed 104 weeks, study length 104 weeks) 19.1 mg/kg/day. Further, the TD50 was 8.92 mg/kg/day (rat, strain Fischer 344, females, in drinking water, site: thyroid follicle, lesion: several types, types named in the paper, dosed 107 weeks, study length 107 weeks); 39.5 mg/kg/day (rat, strain Fischer 344, females, in drinking water, site: thyroid gland, lesion: follicular adenocarcinoma, dosed 104 weeks, study length 104 weeks); 42.8 mg/kg/day (rat, strain Fischer 344, females, in drinking water, site: thyroid gland, lesion: follicular adenocarcinoma, dosed 107 weeks, study length 107 weeks); 11.7 mg/kg/day (rat, strain Fischer 344, females, in drinking water, site: thyroid gland, lesion: follicular-cell adenoma, dosed 107 weeks, study length 107 weeks); 26.5 mg/kg/day (rat, strain Fischer 344, females, in drinking water, site: uterus, lesion: adenocarcinoma, dosed 104 weeks, study length 104 weeks); 18.1 mg/kg/day (rat, strain Fischer 344, males, in drinking water, site: adrenal gland, lesion: pheochromocytoma, benign, dosed 104 weeks, study length 104 weeks). The TD50 by setting is: (rat, strain Fischer 344, males, in drinking water, site: brain, lesion: astrocytoma, dosed 104 weeks, study length 104 weeks) 82.6 mg/kg/day; (rat, strain Fischer 344, males, in drinking water, site: brain, lesion: astrocytoma, dosed 107 weeks, study length 107 weeks) 76.8 mg/kg/day; (rat, strain Fischer 344, males, in drinking water, site: brain, lesion: oligodendroglioma, dosed 104 weeks, study length 104 weeks) 339 mg/kg/day; (rat, strain Fischer 344, males, in drinking water, site: central nervous system, lesion: astrocytoma, dosed 104 weeks, study length 104 weeks) 23.5 mg/kg/day; (rat, strain Fischer 344, males, in drinking water, site: central nervous system, lesion: glial tumors (oligodendroglioma and astrocytoma), dosed 104 weeks, study length 104 weeks) 24.8 mg/kg/day; (rat, strain Fischer 344, males, in drinking water, site: central nervous system, lesion: glial tumors (oligodendroglioma and astrocytoma), dosed 107 weeks, study length 107 weeks) 48.9 mg/kg/day. The TD50 by setting is: (rat, strain Fischer 344, males, in drinking water, site: spinal cord, lesion: astrocytoma, dosed 104 weeks, study length 104 weeks) 39.7 mg/kg/day; (rat, strain Fischer 344, males, in drinking water, site: spinal cord, lesion: astrocytoma, dosed 107 weeks, study length 107 weeks) 82.5 mg/kg/day; (rat, strain Fischer 344, males, in drinking water, site: spleen, lesion: leukemia, dosed 104 weeks, study length 104 weeks) 45.8 mg/kg/day; (rat, strain Fischer 344, males, in drinking water, site: thyroid follicle, lesion: several types, types named in the paper, dosed 107 weeks, study length 107 weeks) 7.35 mg/kg/day; (rat, strain Fischer 344, males, in drinking water, site: thyroid gland, lesion: follicular adenocarcinoma, dosed 107 weeks, study length 107 weeks) 77.2 mg/kg/day; (rat, strain Fischer 344, males, in drinking water, site: thyroid gland, lesion: follicular-cell adenoma, dosed 104 weeks, study length 104 weeks) 13.5 mg/kg/day. Besides, the TD50 reads like this: (rat, strain Fischer 344, males, in drinking water, site: thyroid gland, lesion: follicular-cell adenoma, dosed 107 weeks, study length 107 weeks) 7.49 mg/kg/day; (rat, strain Fischer 344, males, in drinking water, site: tunica vaginalis, lesion: mesothelioma, benign, dosed 107 weeks, study length 107 weeks) 9.45 mg/kg/day; (rat, strain Fischer 344, males, in drinking water, site: tunica vaginalis, lesion: mesothelioma, malignant, dosed 104 weeks, study length 104 weeks) 1.75 mg/kg/day.

Turning to `COc1ccc([N+](=O)[O-])cc1N=Nc1c(O)c(C(=O)Nc2cccc([N+](=O)[O-])c2)cc2ccccc12`, the TD50 was 29700 mg/kg/day (inactive) (mouse, strain B6C3F1, females, in feed, site: any site (literature study), lesion: several types, types named in the paper, dosed 103 weeks, study length 103 weeks); 45200 mg/kg/day (mouse, strain B6C3F1, females, in feed, site: lung, lesion: alveolar/bronchiolar adenoma + alveolar/bronchiolar carcinoma, dosed 103 weeks, study length 103 weeks); 20200 mg/kg/day (inactive) (mouse, strain B6C3F1, males, in feed, site: any site (literature study), lesion: several types, types named in the paper, dosed 103 weeks, study length 103 weeks); 15100 mg/kg/day (mouse, strain B6C3F1, males, in feed, site: liver, lesion: hepatocellular adenoma + hepatocellular carcinoma + neoplastic nodule, dosed 103 weeks, study length 103 weeks); 112000 mg/kg/day (mouse, strain B6C3F1, males, in feed, site: lung, lesion: alveolar/bronchiolar adenoma + alveolar/bronchiolar carcinoma, dosed 103 weeks, study length 103 weeks); 19800 mg/kg/day and 16300 mg/kg/day (rat, strain Fischer 344, males, in feed, site: kidney, lesion: tubule adenoma + tubule carcinoma, dosed 103 weeks, study length 104 weeks). In addition, under setting [1], the carcinogen call was “negative (inactive)”.

Turning to `Cc1ccc(/C(=C\CN2CCCC2)c2ccccn2)cc1`, the carcinogen call is “negative (inactive)” (mouse, strain B6C3F1, females, in feed, site: any site (literature study), lesion: benign tumor, dosed 104 weeks, study length 105 weeks); “negative (inactive)” (mouse, strain B6C3F1, females, in feed, site: any site (literature study), lesion: malignant tumor, dosed 104 weeks, study length 105 weeks); “negative (inactive)” (mouse, strain B6C3F1, females, in feed, site: any site (literature study), lesion: several types, types named in the paper, dosed 104 weeks, study length 105 weeks); “negative (inactive)” (mouse, strain B6C3F1, females, in feed, site: liver, lesion: hepatocellular adenoma, dosed 104 weeks, study length 105 weeks); “negative (inactive)” (mouse, strain B6C3F1, females, in feed, site: liver, lesion: hepatocellular carcinoma, dosed 104 weeks, study length 105 weeks); “negative (inactive)” (mouse, strain B6C3F1, females, in feed, site: liver, lesion: several types, types named in the paper, dosed 104 weeks, study length 105 weeks). Also, the carcinogen call was “negative (inactive)” (mouse, strain B6C3F1, females, in feed, site: lung, lesion: several types, types named in the paper, dosed 104 weeks, study length 105 weeks); “negative (inactive)” (mouse, strain B6C3F1, males, in feed, site: any site (literature study), lesion: benign tumor, dosed 104 weeks, study length 105 weeks); “negative (inactive)” (mouse, strain B6C3F1, males, in feed, site: any site (literature study), lesion: malignant tumor, dosed 104 weeks, study length 105 weeks); “negative (inactive)” (mouse, strain B6C3F1, males, in feed, site: any site (literature study), lesion: several types, types named in the paper, dosed 104 weeks, study length 105 weeks); “negative (inactive)” (mouse, strain B6C3F1, males, in feed, site: liver, lesion: hepatocellular carcinoma, dosed 104 weeks, study length 105 weeks); “negative (inactive)” (mouse, strain B6C3F1, males, in feed, site: lung, lesion: several types, types named in the paper, dosed 104 weeks, study length 105 weeks). Further, the carcinogen call by setting is: (rat, strain Fischer 344, females, in feed, site: any site (literature study), lesion: benign tumor, dosed 103 weeks, study length 104 weeks) “negative (inactive)”; (rat, strain Fischer 344, females, in feed, site: any site (literature study), lesion: malignant tumor, dosed 103 weeks, study length 104 weeks) “negative (inactive)”; under setting [1], “negative (inactive)”; (rat, strain Fischer 344, females, in feed, site: liver, lesion: hepatocellular adenoma, dosed 103 weeks, study length 104 weeks) “negative (inactive)”; (rat, strain Fischer 344, females, in feed, site: liver, lesion: hepatocellular carcinoma, dosed 103 weeks, study length 104 weeks) “negative (inactive)”; (rat, strain Fischer 344, males, in feed, site: any site (literature study), lesion: malignant tumor, dosed 103 weeks, study length 104 weeks) “negative (inactive)”. In addition, the carcinogen call (rat, strain Fischer 344, males, in feed, site: any site (literature study), lesion: several types, types named in the paper, dosed 103 weeks, study length 104 weeks) is “negative (inactive)”; the carcinogen call (rat, strain Fischer 344, males, in feed, site: liver, lesion: hepatocellular adenoma, dosed 103 weeks, study length 104 weeks) is “negative (inactive)”; the carcinogen call (rat, strain Fischer 344, males, in feed, site: liver, lesion: hepatocellular carcinoma, dosed 103 weeks, study length 104 weeks) is “negative (inactive)”. Further, the TD50 reads like this: (mouse, strain B6C3F1, males, in feed, site: liver, lesion: hepatocellular adenoma, dosed 104 weeks, study length 105 weeks) 2330 mg/kg/day (inactive); (mouse, strain B6C3F1, males, in feed, site: liver, lesion: several types, types named in the paper, dosed 104 weeks, study length 105 weeks) 2750 mg/kg/day (inactive); (rat, strain Fischer 344, males, in feed, site: any site (literature study), lesion: benign tumor, dosed 103 weeks, study length 104 weeks) 1170 mg/kg/day (inactive).

For the molecule `CCCCCN(N=O)C(=N)N[N+](=O)[O-]`, for the setting “rat, strain Wistar, males, in drinking water, site: stomach, glandular, lesion: one or several types, types not named, dosed 52 weeks, study length 78 weeks”, the carcinogen call was “negative (inactive)”.

For the origin of these results see PubChem BioAssay AID1745844 (Carcinogenic Potency Database (CPDB), 2022).
